Measured values as given in US20220168307A1, “TREATMENT OF SMA” (Hoffmann-La Roche Inc., priority 2019, published 2022).
Entries after “also recorded” stand apart in the source; their conditions may differ. Where two headings read alike, the source gives them in different places.

Assays:
CYP1A2 [1] = target: T1, CYP1A2 (Homo sapiens, UniProt P05177); assay: Time-dependent inhibition (IC50 shift) of CYP1A2 in human liver microsomes; assay type: in vitro ADME; conditions: risdiplam up to 12.5 μM
T1 sequence (P05177 1-516): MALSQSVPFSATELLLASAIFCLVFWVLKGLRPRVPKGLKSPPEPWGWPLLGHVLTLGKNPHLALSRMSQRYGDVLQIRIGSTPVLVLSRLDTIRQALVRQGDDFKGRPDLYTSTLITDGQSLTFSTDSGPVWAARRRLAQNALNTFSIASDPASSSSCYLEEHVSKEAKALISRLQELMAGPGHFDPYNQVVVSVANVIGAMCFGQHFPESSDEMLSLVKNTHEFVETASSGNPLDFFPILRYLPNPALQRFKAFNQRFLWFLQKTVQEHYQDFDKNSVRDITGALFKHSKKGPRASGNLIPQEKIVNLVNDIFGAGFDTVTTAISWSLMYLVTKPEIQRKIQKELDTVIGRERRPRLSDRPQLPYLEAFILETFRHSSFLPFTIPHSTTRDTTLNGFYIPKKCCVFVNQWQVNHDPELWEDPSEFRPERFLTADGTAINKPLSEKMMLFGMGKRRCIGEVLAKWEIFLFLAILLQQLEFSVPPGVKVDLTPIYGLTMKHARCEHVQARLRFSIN
Description: (§1) Donors CMV negative for serology are unm
(§2) All incubations were conducted in duplicate.
% remaining=(C+I/C^−I)*100

CYP3A4 [2] = target: CYP3A4 (Homo sapiens, UniProt P08684); conditions: microsomes, pH 7.4
CYP3A4 (Homo sapiens, UniProt P08684), sequence (P08684 whole entry): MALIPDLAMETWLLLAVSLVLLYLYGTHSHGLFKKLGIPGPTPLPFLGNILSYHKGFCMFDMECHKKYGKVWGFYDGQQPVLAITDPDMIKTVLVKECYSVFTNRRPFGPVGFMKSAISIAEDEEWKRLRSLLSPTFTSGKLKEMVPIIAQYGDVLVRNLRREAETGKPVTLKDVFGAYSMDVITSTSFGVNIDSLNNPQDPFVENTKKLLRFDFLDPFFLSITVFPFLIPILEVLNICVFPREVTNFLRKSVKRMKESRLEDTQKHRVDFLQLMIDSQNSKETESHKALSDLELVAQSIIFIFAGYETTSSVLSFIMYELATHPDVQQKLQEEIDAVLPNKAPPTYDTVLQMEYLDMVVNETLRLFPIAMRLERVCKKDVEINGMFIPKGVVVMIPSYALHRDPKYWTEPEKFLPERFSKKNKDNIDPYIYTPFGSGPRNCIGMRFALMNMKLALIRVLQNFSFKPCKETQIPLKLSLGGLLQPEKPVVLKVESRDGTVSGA
Description: as §1, §2
(§3) The first order rate constant for inactivation (λ or kabs) was estimated from slopes of the linear portion of the curves.

CYP3A4 [3] = conditions: human, pH 7.4
Description: as §1, §2, §3

CYP2B6 [4] = target: T2, CYP2B6 (Homo sapiens, UniProt P20813); conditions: risdiplam up to 12.5 μM
T2 sequence (P20813 1-491): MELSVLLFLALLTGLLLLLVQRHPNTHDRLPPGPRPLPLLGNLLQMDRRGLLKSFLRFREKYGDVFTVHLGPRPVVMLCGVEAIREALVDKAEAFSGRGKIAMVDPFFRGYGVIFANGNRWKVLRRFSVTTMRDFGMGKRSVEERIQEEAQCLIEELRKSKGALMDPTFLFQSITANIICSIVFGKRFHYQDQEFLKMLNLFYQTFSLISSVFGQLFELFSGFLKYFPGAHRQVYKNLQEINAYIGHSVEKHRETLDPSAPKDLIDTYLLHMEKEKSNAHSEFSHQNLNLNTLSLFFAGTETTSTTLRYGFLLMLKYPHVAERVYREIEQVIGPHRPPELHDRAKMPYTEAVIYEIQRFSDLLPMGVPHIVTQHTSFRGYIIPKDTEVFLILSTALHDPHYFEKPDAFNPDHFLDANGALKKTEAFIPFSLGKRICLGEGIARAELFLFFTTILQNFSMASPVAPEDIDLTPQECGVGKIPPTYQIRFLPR

CYP2C8 [5] = target: T3, CYP2C8 (Homo sapiens, UniProt P10632); assay: in vitro; conditions: pooled human liver microsomes, pH 7.4, probe amodiaquine
T3 sequence (P10632 1-490): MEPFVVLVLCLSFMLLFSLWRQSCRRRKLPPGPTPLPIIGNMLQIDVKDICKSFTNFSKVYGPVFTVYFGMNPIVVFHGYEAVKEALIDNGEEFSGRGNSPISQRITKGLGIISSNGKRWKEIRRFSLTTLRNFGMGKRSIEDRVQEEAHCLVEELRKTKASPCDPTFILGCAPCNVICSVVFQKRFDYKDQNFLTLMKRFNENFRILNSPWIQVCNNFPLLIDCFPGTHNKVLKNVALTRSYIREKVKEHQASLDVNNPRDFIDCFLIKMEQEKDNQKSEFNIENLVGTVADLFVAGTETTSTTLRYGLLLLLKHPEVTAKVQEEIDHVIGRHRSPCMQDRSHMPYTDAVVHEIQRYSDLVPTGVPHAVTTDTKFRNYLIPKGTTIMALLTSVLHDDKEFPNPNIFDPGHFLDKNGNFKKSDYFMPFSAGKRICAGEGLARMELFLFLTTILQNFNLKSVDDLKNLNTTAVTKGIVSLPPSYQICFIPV

CYP2D6 = CYP2D6 (Homo sapiens, UniProt P10635); assay: in vitro; conditions: pooled human liver microsomes, pH 7.4, probe dextromethorphan, % Control activity at, direct inhibition, substrate Dextromethorphan, concentration not given, duplicates
CYP2D6, sequence (P10635 whole entry): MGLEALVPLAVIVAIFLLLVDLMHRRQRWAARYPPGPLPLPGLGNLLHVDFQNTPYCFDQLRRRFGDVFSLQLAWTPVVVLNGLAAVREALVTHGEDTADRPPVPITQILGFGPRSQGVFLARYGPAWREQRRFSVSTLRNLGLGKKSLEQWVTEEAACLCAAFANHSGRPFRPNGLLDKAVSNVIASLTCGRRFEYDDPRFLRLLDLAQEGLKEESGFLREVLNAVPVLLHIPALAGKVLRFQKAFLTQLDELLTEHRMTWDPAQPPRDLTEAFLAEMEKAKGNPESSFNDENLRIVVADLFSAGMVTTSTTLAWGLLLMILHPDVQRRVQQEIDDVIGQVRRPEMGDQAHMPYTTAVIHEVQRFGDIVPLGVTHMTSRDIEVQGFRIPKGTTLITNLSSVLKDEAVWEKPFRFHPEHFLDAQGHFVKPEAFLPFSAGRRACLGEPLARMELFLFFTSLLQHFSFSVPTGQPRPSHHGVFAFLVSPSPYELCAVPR

CYP2B6 [6] = target: T2, CYP2B6; assay: biochemical
CYP2C9 = CYP2C9 (Homo sapiens, UniProt P11712); assay: biochemical
CYP2C9, sequence (P11712 whole entry): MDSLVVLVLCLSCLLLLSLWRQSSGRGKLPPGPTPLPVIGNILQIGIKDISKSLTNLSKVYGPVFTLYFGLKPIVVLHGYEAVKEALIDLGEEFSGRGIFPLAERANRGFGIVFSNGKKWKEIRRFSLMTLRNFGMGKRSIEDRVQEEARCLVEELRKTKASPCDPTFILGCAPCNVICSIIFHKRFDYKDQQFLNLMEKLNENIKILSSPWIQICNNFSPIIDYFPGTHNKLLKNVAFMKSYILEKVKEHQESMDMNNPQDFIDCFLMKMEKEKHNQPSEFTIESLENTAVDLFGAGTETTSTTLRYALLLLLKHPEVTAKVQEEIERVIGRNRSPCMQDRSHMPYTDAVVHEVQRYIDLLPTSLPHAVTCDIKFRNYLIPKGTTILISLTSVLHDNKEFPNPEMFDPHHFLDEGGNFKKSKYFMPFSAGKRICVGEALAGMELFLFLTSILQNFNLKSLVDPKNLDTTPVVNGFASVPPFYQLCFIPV

CYP1A2 [7] = target: T1, CYP1A2; assay: Direct inhibition of CYP1A2 (phenacetin) in human liver microsomes
CYP2C8 [8] = target: T3, CYP2C8; assay: Direct inhibition of CYP2C8 (amodiaquine) in human liver microsomes

Cc1cn2nc(-c3cc(=O)n4cc(N5CCNC6(CC6)C5)ccc4n3)cc(C)c2n1 [risdiplam, 7-(4,7-diazaspiro[2.5]octan-7-yl)-2-(2,8-dimethylimidazo[1,2-b]pyridazin-6-yl)pyrido[1,2-a]pyrimidin-4-one]
time-dependent inhibition (in words) (CYP1A2 [1]): did not show any significant reversible or time-dependent inhibition; also recorded: No significant reversible or time-dependent inhibition; also recorded: No significant time-dependent inhibition; also recorded: low potential to cause direct or time-dependent inhibition | Percent CYP3A4 activity remaining (CYP3A4 [2]; 0 h, 0.1 μM): 100% | Percent CYP3A4 activity remaining (CYP3A4 [2]; 0 h, 0.2 μM): 100% | Percent CYP3A4 activity remaining (CYP3A4 [2]; 0 h, 0.5 μM): 100% | Percent CYP3A4 activity remaining (CYP3A4 [2]; 0 h, 1.3 μM): 100% | Percent CYP3A4 activity remaining (CYP3A4 [2]; 0 h, 3.2 μM): 100% | Percent CYP3A4 activity remaining (CYP3A4 [2]; 0 h, 8 μM): 100% | Percent CYP3A4 activity remaining (CYP3A4 [2]; 0 h, 12.5 μM): 100% | Percent CYP3A4 activity remaining (CYP3A4 [2]; 4 min, 0.1 μM): 90% | Percent CYP3A4 activity remaining (CYP3A4 [2]; 4 min, 0.2 μM): 90% | Percent CYP3A4 activity remaining (CYP3A4 [2]; 4 min, 0.5 μM): 87% | Percent CYP3A4 activity remaining (CYP3A4 [2]; 4 min, 1.3 μM): 82% | Percent CYP3A4 activity remaining (CYP3A4 [2]; 4 min, 3.2 μM): 89% | Percent CYP3A4 activity remaining (CYP3A4 [2]; 4 min, 8 μM): 76% | Percent CYP3A4 activity remaining (CYP3A4 [2]; 4 min, 12.5 μM): 62% | Percent CYP3A4 activity remaining (CYP3A4 [2]; 0.25 h, 0.1 μM): 80% | Percent CYP3A4 activity remaining (CYP3A4 [2]; 0.25 h, 0.2 μM): 80% | Percent CYP3A4 activity remaining (CYP3A4 [2]; 0.25 h, 0.5 μM): 77% | Percent CYP3A4 activity remaining (CYP3A4 [2]; 0.25 h, 1.3 μM): 71% | Percent CYP3A4 activity remaining (CYP3A4 [2]; 0.25 h, 3.2 μM): 62% | Percent CYP3A4 activity remaining (CYP3A4 [2]; 0.25 h, 8 μM): 41% | Percent CYP3A4 activity remaining (CYP3A4 [2]; 0.25 h, 12.5 μM): 29% | Percent CYP3A4 activity remaining (CYP3A4 [2]; 0.5 h, 0.1 μM): 78% | Percent CYP3A4 activity remaining (CYP3A4 [2]; 0.5 h, 0.2 μM): 78% | Percent CYP3A4 activity remaining (CYP3A4 [2]; 0.5 h, 0.5 μM): 75% | Percent CYP3A4 activity remaining (CYP3A4 [2]; 0.5 h, 1.3 μM): 65% | Percent CYP3A4 activity remaining (CYP3A4 [2]; 0.5 h, 3.2 μM): 49% | Percent CYP3A4 activity remaining (CYP3A4 [2]; 0.5 h, 8 μM): 25% | Percent CYP3A4 activity remaining (CYP3A4 [2]; 0.5 h, 12.5 μM): 17% | Percent CYP3A4 activity remaining (CYP3A4 [2]; 0.75 h, 0.1 μM): 72% | Percent CYP3A4 activity remaining (CYP3A4 [2]; 0.75 h, 0.2 μM): 72% | Percent CYP3A4 activity remaining (CYP3A4 [2]; 0.75 h, 0.5 μM): 68% | Percent CYP3A4 activity remaining (CYP3A4 [2]; 0.75 h, 1.3 μM): 55% | Percent CYP3A4 activity remaining (CYP3A4 [2]; 0.75 h, 3.2 μM): 39% | Percent CYP3A4 activity remaining (CYP3A4 [2]; 0.75 h, 8 μM): 19% | Percent CYP3A4 activity remaining (CYP3A4 [2]; 0.75 h, 12.5 μM): 13% | Percent CYP3A4 activity remaining (CYP3A4 [2]; 1 h, 0.1 μM): 65% | Percent CYP3A4 activity remaining (CYP3A4 [2]; 1 h, 0.2 μM): 65% | Percent CYP3A4 activity remaining (CYP3A4 [2]; 1 h, 0.5 μM): 59% | Percent CYP3A4 activity remaining (CYP3A4 [2]; 1 h, 1.3 μM): 48% | Percent CYP3A4 activity remaining (CYP3A4 [2]; 1 h, 3.2 μM): 36% | Percent CYP3A4 activity remaining (CYP3A4 [2]; 1 h, 8 μM): 15% | Percent CYP3A4 activity remaining (CYP3A4 [2]; 1 h, 12.5 μM): 10% | KI (CYP3A4 [3]): 13 µM | time-dependent inhibition (in words) (CYP2B6 [4]): did not show any significant reversible or time-dependent inhibition; also recorded: No significant reversible or time-dependent inhibition; also recorded: No significant time-dependent inhibition; also recorded: low potential to cause direct or time-dependent inhibition | activity (CYP2C8 [5]): 93% | activity (CYP2D6): 97% | IC50 (CYP2B6 [6]): > 12.5 µM | IC50 (CYP2C9): > 12.5 µM | % Control activity at (CYP1A2 [7]; direct inhibition, substrate Phenacetin, concentration not given, duplicates): 101% | reversible (direct) inhibition (in words) (CYP1A2 [7]; risdiplam up to 12.5 μM): did not show any significant reversible or time-dependent inhibition; also recorded: No significant reversible or time-dependent inhibition; also recorded: No significant reversible inhibition; also recorded: low potential to cause direct or time-dependent inhibition | % Control activity at (CYP2C8 [8]; direct inhibition, substrate Amodiaquine, concentration not given, duplicates): 91% | reversible (direct) inhibition (in words) (CYP2C8 [8]; risdiplam up to 12.5 μM): did not show any significant reversible or time-dependent inhibition; also recorded: No significant reversible or time-dependent inhibition; also recorded: No significant reversible inhibition; also recorded: low potential to cause direct or time-dependent inhibition
